Experimental data taken from patent US20240262866A1, “METHOD FOR PREPARING ANIDULAFUNGIN DERIVATIVE” (Shanghai Senhui Medicine Co., Ltd., priority 2021, published 2024).
Like-named read-outs stand apart in the source and are kept apart here. *1 amine or outer side, *2 acyl side, *3 side chain or, on linkers, in order; H or OH if unused. Where a SMILES comes first, the peptide text is derived from it. Bridges are numbered along the chain shown (N, C = ends). [ ]: non-standard residue; d: D form. The star is where a group is joined. pTerphenylCO(4''-OnC5H11) = CCCCCOc1ccc(-c2ccc(-c3ccc(C(=O)*)cc3)cc2)cc1; Orn(4R-OH,5R-OH) = O=C([C@H](C[C@@H](O)[C@@H](O)N[*:3])N[*:1])[*:2]; hTyr(3S-OH,4S-OH) = N[C@H](C(=O)O)[C@H](O)[C@@H](O)c1ccc(O)cc1; Pro(3S-OH,4S-Me) = C[C@H]1CN[C@H](C(=O)O)[C@H]1O; Hyp = O=C(O)[C@@H]1C[C@@H](O)CN1

Tests used:
[1] = tested on: Candida glabrata ATCC 15126; assay: MIC assay (CLSI M27-A3), Candida glabrata ATCC 15126; assay type: cell-based; conditions: first batch; 24 h, ≥50% growth inhibition
Procedure: (§1) After a test compound was serially diluted, an MIC (minimum inhibitory concentration) assay was performed on the standard Candida strain and an MEC (minimum effective concentration) assay on the standard Aspergillus strain. The MIC assay was performed according to the guidelines of the Clinical and Laboratory Standards Institute (CLSI M27-A3) and the MEC assay according to the guidelines of the Clinical and Laboratory Standards Institute (CLSI M38-A2).
(§2) The frozen strain was passaged at least twice, and a single colony was picked and resuspended in normal saline or sterile water in a tube. […]
(§3) For echinocandin drugs, Aspergillus was incubated at 28° C. for 21-26 h, and then the MEC results were read.
(§4) • Yeast-type fungi: A disposable sealing film was applied to the 96-well plate, and the mixture was well mixed by shaking. Observation was performed through a plate reader with the naked eye. […] Pictures were taken and saved using an automatic plate reader. • Aspergillus: For echinocandin drugs, comparisons were made to the growth control under a plate reader, and the minimum drug concentration that could cause the hyphae to form small, round, compact hyphal particles was defined as MEC. For accurate determination of MEC values, the plate must not be vortexed before reading.

[2] = tested on: Candida albicans ATCC 90028; assay: MIC assay (CLSI M27-A3), Candida albicans ATCC 90028; assay type: cell-based; conditions: second batch
Procedure: as §1, §2, §3, §4

[3] = tested on: Candida albicans (azole drug-resistant strain) R358; assay: MIC assay (CLSI M27-A3), Candida albicans azole drug-resistant strain R358; assay type: cell-based; conditions: second batch; 24 h
Procedure: as §1, §2, §3, §4

[4] = tested on: Candida tropicalis ATCC 750; assay: MIC assay (CLSI M27-A3), Candida tropicalis ATCC 750; assay type: cell-based; conditions: first batch; 24 h, ≥50% growth inhibition
Procedure: as §1, §2, §3, §4

[5] = tested on: Candida albicans ATCC 44858; assay: MIC assay (CLSI M27-A3), Candida albicans ATCC 44858; assay type: cell-based; conditions: second batch; 24 h
Procedure: as §1, §2, §3, §4

[6] = tested on: Candida albicans ATCC 90029; assay: MIC assay (CLSI M27-A3), Candida albicans ATCC 90029; assay type: cell-based; conditions: first batch; 24 h, ≥50% growth inhibition
Procedure: as §1, §2, §3, §4

[7] = tested on: Candida krusei ATCC 6258; assay: MIC assay (CLSI M27-A3), Candida krusei ATCC 6258; assay type: cell-based; conditions: first batch; 24 h, ≥50% growth inhibition; quality control strain
Procedure: as §1, §2, §3, §4

[8] = tested on: Candida tropicalis (amphotericin-resistant strain) ATCC 200956; assay: MIC assay (CLSI M27-A3), Candida tropicalis amphotericin-resistant strain ATCC 200956; assay type: cell-based; conditions: second batch; 24 h
Procedure: as §1, §2, §3, §4

[9] = tested on: Aspergillus flavus ATCC 28539; assay: MEC assay (CLSI M38-A2), Aspergillus flavus ATCC 28539; assay type: cell-based; conditions: first batch; 28° C., 21-26 h
Procedure: as §1
Aspergillus was passaged onto an SDA plate and cultured at 35° C. for 48 h to 7 d to induce sporulation. Colonies on the plate were covered with about 1 mL of 0.85% normal saline or sterile water (polysorbate 20 was added at a final concentration of 0.1%-0.01%). The medium was gently wiped on its surface with a tip or a sterile cotton swab (be careful not to break the medium), and the spore hyphae suspension was transferred to a sterile tube and let stand for 3-5 min so that the heavy particles settled. The homogeneous upper layer of the suspension was transferred to a new sterile tube, which was then sealed and vortexed for 15 s (be careful as the suspension may produce an aerosol when the cover is removed). The concentration of the suspension was adjusted until an OD value of 0.09-0.13 was achieved using a spectrophotometer at 530 nm. The suspension was 50-fold diluted with 1×RPMI 1640. 100 μL of sample was added to each well of the 96-well plate within 2 h after dilution (the final spore concentration in the susceptibility testing plate was at 0.4×10^4 to 5×10^4 CFU/mL).
Colony counting: The suspension diluted with RPMI 1640 was further diluted 10-fold, and 10 μL of the dilution was applied to an SDA plate, cultured at 28° C., and observed every day; colonies were immediately counted upon being visible to the naked eye.
as §3
• Yeast-type fungi: A disposable sealing film was applied to the 96-well plate, and the mixture was well mixed by shaking. Observation was performed through a plate reader with the naked eye. Comparisons were made to the growth control, and the minimum compound concentration corresponding to ≥50% growth inhibition was defined as MIC. Pictures were taken and saved using an automatic plate reader. • Aspergillus: For echinocandin drugs, comparisons were made to the growth control under a plate reader, and the minimum drug concentration that could cause the hyphae to form small, round, compact hyphal particles was defined as MEC. For accurate determination of MEC values, the plate must not be vortexed before reading.

[10] = tested on: Candida albicans (azole drug-resistant strain) R357; assay: MIC assay (CLSI M27-A3), Candida albicans azole drug-resistant strain R357; assay type: cell-based; conditions: second batch; 24 h
Procedure: as §1, §2, §3, §4

[11] = tested on: Meyerozyma guilliermondii ATCC 6260; assay: MIC assay (CLSI M27-A3), Meyerozyma guilliermondii ATCC 6260; assay type: cell-based; conditions: first batch; 24 h, ≥50% growth inhibition
Procedure: as §1, §2, §3, §4

[12] = tested on: plasma histamine; assay: Plasma histamine assay after single intravenous injection; assay type: in vivo, SD rats
Procedure: (§5) 12 SD rats were divided into 2 groups of 6 (half are male and half female). […] The body weights were measured once before administration. Administration was performed by single intravenous injection for 20 min per animal. PK measurement was performed once before administration and 5 min, 30 min, 1 h, 4 h, 8 h, 24 h, 48 h, 72 h and 96 h after administration. A histamine assay was performed once before administration and 30 min, 4 h, 8 h and 24 h after administration.

[13] = tested on: Candida glabrata ATCC 36583; assay: MIC assay (CLSI M27-A3), Candida glabrata ATCC 36583; assay type: cell-based; conditions: second batch; 24 h
Procedure: as §1, §2, §3, §4

[14] = tested on: Candida parapsilosis ATCC 22019; assay: MIC assay (CLSI M27-A3), Candida parapsilosis ATCC 22019; assay type: cell-based; conditions: first batch; 24 h, ≥50% growth inhibition; quality control strain
Procedure: as §1, §2, §3, §4

[15] = tested on: SD rats; assay: General state observation after single intravenous injection; assay type: in vivo; conditions: 10 mg/kg single intravenous injection, day of administration
Procedure: as §5

[16] = Pharmacokinetic study after single intravenous injection; assay type: in vivo, SD rats; conditions: Sprague-Dawley, rat, plasma, 10 mg/kg i.v.; for AUC(0-t): read-out: AUC0-96; for Vd: read-out: VdSS
Procedure: as §5

Question: For Rezafungin acetate, which “MIC Candida glabrata ATCC 15126” value [1] is on record?
Answer: 0.125 µg/mL

Question: And the “MIC Candida albicans ATCC 90028” value ([2]; 24 h)?
Answer: 0.25 µg/mL

Question: And the “MIC Candida albicans + 50% human serum ATCC 90028” value ([2]; + 50% human serum)?
Answer: 0.25 µg/mL

Question: What about the “MIC Candida albicans (azole drug-resistant strain) R358” value [3] of the same molecule?
Answer: 0.25 µg/mL

Question: What about the “MIC Candida tropicalis ATCC 750” value [4] of the same molecule?
Answer: 0.016 µg/mL

Question: What about the “MIC Candida albicans ATCC 44858” value [5] of the same molecule?
Answer: 0.25 µg/mL

Question: What about the “MIC Candida albicans ATCC 90029” value [6] of the same molecule?
Answer: 0.125 µg/mL

Question: What about the “MIC Candida krusei ATCC 6258” value [7] of the same molecule?
Answer: 0.25 µg/mL

Question: And the “MIC Candida tropicalis (amphotericin-resistant strain) ATCC 200956” value [8]?
Answer: 0.25 µg/mL

Question: What about the “MEC Aspergillus flavus ATCC 28539” value [9] of the same molecule?
Answer: 0.031 µg/mL

Question: And the “MIC Candida albicans (azole drug-resistant strain) R357” value [10]?
Answer: 0.25 µg/mL

Question: And the “MIC Meyerozyma guilliermondii ATCC 6260” value [11]?
Answer: 2 µg/mL

Question: And the “fold higher mean plasma histamine concentration than group 1” value ([12]; 30 min after administration, 10 mg/kg i.v., p=0.046)?
Answer: 4.5 times

Question: What about the “MIC Candida glabrata ATCC 36583” value [13] of the same molecule?
Answer: 0.25 µg/mL

Question: What about the “MIC Candida parapsilosis ATCC 22019” value [14] of the same molecule?
Answer: 2 µg/mL

Question: What about the general state observation [15] of the same molecule?
Answer: transient slight decrease in activity occurred in 2 females

Question: For Caspofungin acetate, which “MIC Candida glabrata ATCC 15126” value [1] is on record?
Answer: 0.25 µg/mL

Question: And the “MIC Candida tropicalis ATCC 750” value [4]?
Answer: 0.016 µg/mL

Question: What about the “MIC Candida albicans ATCC 90029” value [6] of the same molecule?
Answer: 0.063 µg/mL

Question: What about the “MIC Candida krusei ATCC 6258” value [7] of the same molecule?
Answer: 1 µg/mL

Question: And the “MEC Aspergillus flavus ATCC 28539” value [9]?
Answer: 0.031 µg/mL

Question: What about the “MIC Meyerozyma guilliermondii ATCC 6260” value [11] of the same molecule?
Answer: 1 µg/mL

Question: What about the “MIC Candida parapsilosis ATCC 22019” value [14] of the same molecule?
Answer: 1 µg/mL

Question: For CCCCCOc1ccc(-c2ccc(-c3ccc(C(=O)N[C@H]4C[C@@H](O)[C@@H](O)NC(=O)[C@@H]5[C@@H](O)[C@@H](C)CN5C(=O)[C@H]([C@@H](C)O)NC(=O)[C@H]([C@H](O)[C@@H](O)c5ccc(O)cc5)NC(=O)[C@@H]5C[C@@H](O)CN5C(=O)[C@H]([C@@H](C)O)NC4=O)cc3)cc2)cc1 [Anidulafungin] ({pTerphenylCO(4''-OnC5H11)}-[Orn(4R-OH,5R-OH)]T[Hyp][hTyr(3S-OH,4S-OH)]T[Pro(3S-OH,4S-Me)]; lactam 1-C), which “MEC Aspergillus flavus ATCC 28539” value [9] is on record?
Answer: 0.031 µg/mL

Question: For CCCCCOc1ccc(-c2ccc(-c3ccc(C(=O)N[C@H]4C[C@@H](O)[C@@H](OC[C@H]5CCC[N+]5(C)C)NC(=O)[C@@H]5[C@@H](O)[C@@H](C)CN5C(=O)[C@H]([C@@H](C)O)NC(=O)[C@H]([C@H](O)[C@@H](O)c5ccc(O)cc5)NC(=O)[C@@H]5C[C@@H](O)CN5C(=O)[C@H]([C@@H](C)O)NC4=O)cc3)cc2)cc1 [Compound of formula (I)], which “MEC Aspergillus flavus ATCC 28539” value [9] is on record?
Answer: 0.031 µg/mL

Question: What about the “ability to induce increases in the histamine level in rats” value ([12]; same dose (10 mg/kg) i.v., compared with rezafungin acetate) of the same molecule?
Answer: significantly lower

Question: And the AUC(0-inf) ([16]; female SD rats)?
Answer: 195 µg·h/mL

Question: What about the Cmax ([16]; female SD rats) of the same molecule?
Answer: 9300 ng/mL

Question: What about the clearance ([16]; female SD rats) of the same molecule?
Answer: 0.9 mL/min/kg

Question: What about the half-life ([16]; female SD rats) of the same molecule?
Answer: 25.5 h

Question: And the AUC(0-t) ([16]; female SD rats)?
Answer: 180 µg·h/mL

Question: What about the Vd ([16]; female SD rats) of the same molecule?
Answer: 1.8 L/kg

Question: And the AUC(0-inf) ([16]; male SD rats)?
Answer: 191 µg·h/mL

Question: What about the Cmax ([16]; male SD rats) of the same molecule?
Answer: 8000 ng/mL

Question: What about the clearance ([16]; male SD rats) of the same molecule?
Answer: 0.9 mL/min/kg

Question: And the half-life ([16]; male SD rats)?
Answer: 27.7 h

Question: What about the AUC(0-t) ([16]; male SD rats) of the same molecule?
Answer: 174 µg·h/mL

Question: And the Vd ([16]; male SD rats)?
Answer: 1.9 L/kg
